How the values were obtained:
[1] = molecular target: Phosphatidylinositol 4,5-bisphosphate 3-kinase catalytic subunit gamma isoform (Homo sapiens, UniProt P48736); assay: (§1) PI3K-gamma Scintillation Proximity Assay: Materials: [γ-33P]ATP (10 mCi/mL) and Wheat Germ Agglutinin (WGA) YSi SPA Scintillation Beads was purchased from Perkin Elmer (Waltham, Mass.). Lipid kinase substrate, D-myo-Phosphatidylinositol 4,5-bisphosphate (PtdIns(4,5)P2)D (+)-sn-1,2-di-O-octanoylglyceryl, 3-O-phospho linked (PIP2), CAS 204858-53-7, was purchased from Echelon Biosciences (Salt Lake City, Utah). PI3Kγ (p110γ) Recombinant Human Protein was purchased from Life technology (Grand Island, N.Y.). ATP, MgCl2, DTT, EDTA, MOPS and CHAPS were purchased from Sigma Aldrich (St. Louis, Mo.).The kinase reaction was conducted in polystyrene 384-well Greiner Bio-one white plate from Thermo Fisher Scientific in a final volume of 25 μL. Inhibitors were first diluted serially in DMSO and added to the plate wells before the addition of other reaction components. The final concentration of DMSO in the assay was 2%. The PI3Kγ assay was carried out at room temperature in 20 mM MOPS, pH 6.7, 10 mM MgCl2, 5 mM DTT and CHAPS 0.03%. Reactions were initiated by the addition of ATP, the final reaction mixture consisted of 20 μM PIP2, 2 μM ATP, 0.5 μCi [γ-33P] ATP, 13 nM PI3Kγ. Reactions were incubated for 120 min and terminated by the addition of 40 μL SPA beads suspended in quench buffer: 163 mM potassium phosphate pH 7.8, 20% glycerol, 25 mM EDTA. The final concentration of SPA beads is 1.0 mg/mL. […]
[2] = molecular target: T1, Phosphatidylinositol 4,5-bisphosphate 3-kinase catalytic subunit delta isoform (Homo sapiens, UniProt O00329); assay: as §1, with “PI3Kdelta” for “PI3K-gamma”, “PI3Kδ (p110δ/p85α)” for “PI3Kγ (p110γ)”, “Eurofins (St Charles, Mo.).” for “Life technology (Grand Island, N.Y.).”, “PI3Kδ” for “PI3Kγ”, “3.4” for “13”, “PI3Kδ.” for “PI3Kγ.”
T1 sequence (O00329 whole entry): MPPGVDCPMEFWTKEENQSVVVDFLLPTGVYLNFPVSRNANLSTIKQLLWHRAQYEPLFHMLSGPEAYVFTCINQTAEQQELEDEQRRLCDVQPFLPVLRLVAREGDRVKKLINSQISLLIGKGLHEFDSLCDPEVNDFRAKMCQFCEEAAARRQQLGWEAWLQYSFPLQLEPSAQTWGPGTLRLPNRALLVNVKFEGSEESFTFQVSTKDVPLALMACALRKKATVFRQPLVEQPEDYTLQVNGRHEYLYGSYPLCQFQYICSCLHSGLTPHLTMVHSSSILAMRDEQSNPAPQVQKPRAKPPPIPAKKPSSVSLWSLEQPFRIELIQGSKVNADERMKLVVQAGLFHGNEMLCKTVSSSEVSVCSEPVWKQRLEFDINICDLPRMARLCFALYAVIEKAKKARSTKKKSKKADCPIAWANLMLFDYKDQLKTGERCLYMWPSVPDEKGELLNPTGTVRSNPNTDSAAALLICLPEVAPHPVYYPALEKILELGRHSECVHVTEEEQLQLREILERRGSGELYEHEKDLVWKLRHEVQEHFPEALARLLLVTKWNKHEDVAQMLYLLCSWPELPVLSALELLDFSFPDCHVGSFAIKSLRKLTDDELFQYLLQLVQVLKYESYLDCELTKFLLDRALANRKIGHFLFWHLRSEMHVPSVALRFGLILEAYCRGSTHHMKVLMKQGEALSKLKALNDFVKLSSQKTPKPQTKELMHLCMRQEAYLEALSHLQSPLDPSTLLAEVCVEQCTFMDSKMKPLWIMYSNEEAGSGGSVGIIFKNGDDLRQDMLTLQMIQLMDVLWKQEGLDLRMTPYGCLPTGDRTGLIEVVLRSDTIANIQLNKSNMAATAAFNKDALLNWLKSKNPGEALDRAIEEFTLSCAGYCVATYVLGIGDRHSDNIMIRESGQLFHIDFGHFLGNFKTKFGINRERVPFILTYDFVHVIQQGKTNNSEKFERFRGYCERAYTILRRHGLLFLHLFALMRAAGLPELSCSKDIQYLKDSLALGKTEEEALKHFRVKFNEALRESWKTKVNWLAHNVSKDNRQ

Phosphatidylinositol 4,5-bisphosphate 3-kinase catalytic subunit gamma isoform, sequence (P48736 whole entry, canonical isoform): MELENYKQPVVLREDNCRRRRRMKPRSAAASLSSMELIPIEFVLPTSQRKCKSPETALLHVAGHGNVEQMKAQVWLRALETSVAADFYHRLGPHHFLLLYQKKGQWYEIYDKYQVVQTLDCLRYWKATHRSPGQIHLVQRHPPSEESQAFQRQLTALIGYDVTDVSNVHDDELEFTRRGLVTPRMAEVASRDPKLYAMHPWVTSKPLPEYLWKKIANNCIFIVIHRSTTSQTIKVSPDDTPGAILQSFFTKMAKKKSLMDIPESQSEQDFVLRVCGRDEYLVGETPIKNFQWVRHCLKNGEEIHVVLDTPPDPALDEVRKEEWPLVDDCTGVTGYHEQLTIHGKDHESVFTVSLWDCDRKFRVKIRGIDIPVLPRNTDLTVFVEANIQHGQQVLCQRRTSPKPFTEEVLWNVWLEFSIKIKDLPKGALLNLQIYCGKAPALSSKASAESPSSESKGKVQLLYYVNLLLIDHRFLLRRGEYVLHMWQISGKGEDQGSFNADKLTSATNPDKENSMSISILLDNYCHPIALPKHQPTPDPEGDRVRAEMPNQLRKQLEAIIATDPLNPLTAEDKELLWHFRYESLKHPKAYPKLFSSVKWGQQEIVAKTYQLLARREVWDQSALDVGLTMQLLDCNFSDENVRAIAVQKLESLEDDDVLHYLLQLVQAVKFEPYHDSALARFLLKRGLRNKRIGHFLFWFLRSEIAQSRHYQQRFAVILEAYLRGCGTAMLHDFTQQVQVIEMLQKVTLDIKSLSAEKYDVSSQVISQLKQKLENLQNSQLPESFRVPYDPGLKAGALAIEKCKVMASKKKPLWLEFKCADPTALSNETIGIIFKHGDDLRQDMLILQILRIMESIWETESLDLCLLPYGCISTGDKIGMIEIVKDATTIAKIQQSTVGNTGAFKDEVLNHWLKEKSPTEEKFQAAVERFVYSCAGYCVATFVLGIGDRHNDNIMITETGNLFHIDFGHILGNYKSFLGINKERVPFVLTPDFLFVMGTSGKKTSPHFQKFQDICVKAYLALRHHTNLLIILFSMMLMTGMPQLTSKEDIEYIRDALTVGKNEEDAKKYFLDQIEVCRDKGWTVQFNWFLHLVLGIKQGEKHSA

IC50 [1]: < 100 nM
IC50 [2]: < 100 nM
Structure (SMILES): Cc1ncc(-c2nc(-c3cc(C(O)(C(N)=O)C(F)(F)F)ccc3C)cnc2N)s1 (configuration not stated)

Reference: ChEMBL document CHEMBL5728563, “Aminopyrazine derivatives as PI3K-γ inhibitors” (2021)
